From patent US8669378B2, “Process for synthesizing epicconone analogs” (Universite de Rouen, priority 2009, dated 2014)

Legend:
[1] = water and lipid bilayers; cited from earlier work
[2] = cited from earlier work
[3] = Fluorescence of the adducts with butylamine in acetonitrile; assay type: physicochemical; set-up: Δ Stokes: unit not given here; settings: Bioconjugated molecule (BuNH2) in CH3CN
Description: (§1) Apparatus: • Acetonitrile: VWR HPLC quality • Micropipette: 5 μl, 10 μl, 200 μl, 1000 μl, • Eppendorf: Safe lock tube PCR • UV cuvette: Varian-Quartz 10 mm thick • Fluorescence cuvette: Hellma-Quartz 10 mm thick • Vortex: Bender & Hobein-Genie 2 • Centrifuge: Baky Bug • Absorbance spectrophotometer: Varian-Cary 50 scan • Fluorescence spectrophotometer: Varian-Cary Eclipse • Thermostated bath: Varian-Cary single cell peltier accessory Stock Solution:
(§2) Approximately exactly 1 to 2 mg of compound Ia-Io are weighed out in a 1.5 mL Eppendorf tube. The stock solutions are then prepared by adding exactly 1 mL of acetonitrile and the Eppendorf tubes are then stored protected from light.
Two protocols were implemented for the fluorescence tests. • For compounds Ii-Ik: 125 μL of the preceding solution (absorbance solution) are diluted to 1.25 mL by adding 1125 μl of acetonitrile to a fluorescence cuvette. The analysis is then performed on the fluorescence spectrophotometer by excitation at the respective maximum-absorption wavelengths. • For compounds Ia-Ih and Il-Io: 1250 μl of the preceding solution (absorbance) are placed in a fluorescence cuvette. The analysis is then performed on the fluorescence spectrophotometer by excitation at the respective maximum-absorption wavelengths.

[4] = Absorbance of the adducts with butylamine in acetonitrile; assay type: physicochemical; settings: Bioconjugated molecule (BuNH2) in CH3CN
Description: as §1, §2
30 μl of stock solution are placed in a 1.5 mL Eppendorf tube. At room temperature, 10 μl (or 30 μl in the case of Ik) of a 0.15 M solution of butylamine/acetonitrile are added and the medium is stirred by vortex and then centrifuged. After diluting to 1 mL by adding 960 μl of acetonitrile (or 940 μl in the case of Ik), the clear solution is transferred into a UV cuvette and then made up to 2 mL with acetonitrile. The analysis is then performed after producing a “blank” spectrum with a pure acetonitrile solution.

[5] = Photobleaching of stained standard proteins in gel under UV transilluminator; assay type: physicochemical; settings: protein-stained gel, first-order exponential decay fit, deduced from FIG. 1
Description: The compounds were dissolved at 10 mg/mL in DMSO. The stock solutions obtained were diluted to 1 mg/mL in water and divided into 100 μL aliquots for storage. All the products and aliquots were stored at −80° C.
Standard proteins (SDS labeling kit-low molecular weight sold by GE, 17-0446-01) were diluted in an LDS buffer (250 μL Invitrogen 4×LDS buffer, 100 μL of 1 M DDT, 650 μL of water) to create serial dilutions ranging from 128 ng/STI band to 125 pg/STI band.
5 μL of each protein solution were loaded onto NuPAGE® Novex® 12% bis-tris gels (1.0 mm thick, 12 wells, Invitrogen NP0342BOX). The gels were subjected to a current of 150 V for approximately 65 minutes using MES buffer (50 mM MES, 50 mM tris, 1 mM EDTA, 0.1% SDS, pH 7.3) so that the buffer front arrives just up to the gel. After eluting the dye, the gels were fixed for 1 to 17 hours (100 mL of fixing solution with 15% EtOH (v/v) and 1% citric acid) in individual lanes. The fixing solution used was replaced with fresh solution one hour after staining. The gels were stained for 1 hour in 50 mL of sodium borate buffer at 100 mM (pH 10.9) containing either […] of LavaPurple gel dye (Fluorotechnics; LP-011005) or one of the test compounds (50 μL for a 1 mg/mL solution). The gels were treated with 100 mL of 15% ethanol and then washed with 100 mL of fixing solution for 30 minutes.
Imaging was performed using a Typhoon Trio imager (excitation: 532 nm, emission filter: 610BP30, 540 PMT, resolution: 100 μm) using a normal sensitivity. The recorded image corresponds to the scan at time zero. The gels were then placed in a UV transilluminator for 60, 146, 240, 330, 630 and 990 seconds (total exposure time), a Typhoon scanner image being recorded between each exposure. The volumes of the bands were analyzed using the Image-Quant TL software, and all the band volumes were normalized with phosphorylase B. The photobleaching was analyzed by graphically representing the band volumes as a function of the exposure time (GraphPad Prism v4 software) and by fitting the curve to a first-order exponential decay to determine a pseudofirst-order rate constant.
FIG. 1 represents the decrease of the normalized residual signal of compounds (Ii), (Ij), (Ik), (In) and (Io) according to the invention and of epicocconone.
From this FIGURE, the half-life times of the compounds may be deduced: […]

## C/C=C/C=C/C=C/C(=O)/C=C(\O)C1=C2C=C3C[C@@H](CO)OC=C3C(=O)[C@@]2(C)OC1=O [epicocconone, 5,6-dihydro-3-[(1Z,4E,6E,8E)-1-hydroxy-3-oxo-1,4,6,8-decatetraenyl]-6-hydroxymethyl-9a-methyl-2H-furo[3,2g][2]benzopyran-2,9-(9aH)-dione, reference compound]
[1]
  solubility: good solubility both in water and in lipid bilayers
[2]; adduct with amine functions, UV-Vis radiation, for example at 395 nm or 520 nm
  fluorescence emission wavelength of enamine adduct: about 600 nm
[2]; difference between absorption and emission wavelength
  Stokes shift: about 100 nm
[3]; emission minus excitation wavelength
  Δ Stokes: 95
[3]; excitation at maximum-absorption wavelength
  λ fluo (λ excitation) (nm): 610 nm
[3]; fluorescence intensity
  Intensity normalized to 50 μM: 3950
[4]; longer-wavelength absorption maximum, used for excitation
  λ UV (nm), second maximum: 515 nm
[4]; shorter-wavelength absorption maximum
  λ UV (nm), first maximum: 388 nm
[5]
  Half-life time: 11.3 min
